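Tested at 5 concentrations; 48 h exposure; 96-well plates; endpoints linearly interpolated, else capped at highest concentration. At the TGI there is no net growth.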
Columns and labels:
Test in all cases: NCI anticancer screen, dose series, 48 h
MDA-MB-231 breast = system: MDA-MB-231 breast
SN12C renal = system: SN12C renal
HS 578T breast = system: HS 578T breast
SF-295 CNS = system: SF-295 CNS
U251 CNS = system: U251 CNS
TK-10 renal = system: TK-10 renal
OVCAR-8 ovarian = system: OVCAR-8 ovarian
SR leukemia = system: SR leukemia
NCI-H23 lung = system: NCI-H23 lung
COLO 205 colon = system: COLO 205 colon
A549 NSCLC = system: A549 NSCLC
M14 melanoma = system: M14 melanoma
HOP-62 NSCLC = system: HOP-62 NSCLC
HT29 colon = system: HT29 colon
SK-OV-3 ovarian = system: SK-OV-3 ovarian
SNB-75 CNS = system: SNB-75 CNS
MALME-3M melanoma = system: MALME-3M melanoma
RXF 393 renal = system: RXF 393 renal
HL-60(TB) leukemia = system: HL-60(TB) leukemia
PC-3 prostate = system: PC-3 prostate
SK-MEL-28 melanoma = system: SK-MEL-28 melanoma
MOLT-4 leukemia = system: MOLT-4 leukemia
BT-549 breast = system: BT-549 breast
SF-268 CNS = system: SF-268 CNS
MDA-N = system: MDA-N
SNB-19 CNS = system: SNB-19 CNS
UACC-62 melanoma = system: UACC-62 melanoma
KM12 colon = system: KM12 colon
NCI-H522 lung = system: NCI-H522 lung
OVCAR-3 ovarian = system: OVCAR-3 ovarian
HOP-92 NSCLC = system: HOP-92 NSCLC
T-47D breast = system: T-47D breast
HCT-116 colon = system: HCT-116 colon
MCF7 breast = system: MCF7 breast
CAKI-1 renal = system: CAKI-1 renal
NCI-H226 lung = system: NCI-H226 lung
OVCAR-5 ovarian = system: OVCAR-5 ovarian
SF-539 CNS = system: SF-539 CNS
EKVX NSCLC = system: EKVX NSCLC
MDA-MB-435 = system: MDA-MB-435
HCC-2998 colon = system: HCC-2998 colon
OVCAR-4 ovarian = system: OVCAR-4 ovarian
SW-620 colon = system: SW-620 colon
IGROV1 ovarian = system: IGROV1 ovarian
K-562 leukemia = system: K-562 leukemia
SK-MEL-5 melanoma = system: SK-MEL-5 melanoma
786-0 renal = system: 786-0 renal
ACHN renal = system: ACHN renal
DU-145 prostate = system: DU-145 prostate
NCI-H460 lung = system: NCI-H460 lung
CCRF-CEM leukemia = system: CCRF-CEM leukemia
A498 renal = system: A498 renal
UO-31 renal = system: UO-31 renal
UACC-257 melanoma = system: UACC-257 melanoma
HCT-15 colon = system: HCT-15 colon
SK-MEL-2 melanoma = system: SK-MEL-2 melanoma
NCI/ADR-RES ovarian = system: NCI/ADR-RES ovarian
RPMI-8226 leukemia = system: RPMI-8226 leukemia

CC1(C)C2CCC1(C)C(NC(=O)COCCOCC(N)=O)C2 (configuration not stated)
TGI (MDA-MB-231 breast): > 100 µM
TGI (SN12C renal): > 100 µM
TGI (HS 578T breast): > 100 µM
TGI (SF-295 CNS): > 100 µM
TGI (U251 CNS): > 100 µM
TGI (TK-10 renal): > 100 µM
TGI (OVCAR-8 ovarian): > 100 µM
TGI (SR leukemia): 85.1 µM
TGI (NCI-H23 lung): > 100 µM
TGI (COLO 205 colon): > 100 µM
TGI (A549 NSCLC): > 100 µM
TGI (M14 melanoma): > 100 µM
TGI (HOP-62 NSCLC): > 100 µM
TGI (HT29 colon): > 100 µM
TGI (SK-OV-3 ovarian): > 100 µM
TGI (SNB-75 CNS): > 100 µM
TGI (MALME-3M melanoma): > 100 µM
TGI (RXF 393 renal): > 100 µM
TGI (HL-60(TB) leukemia): > 100 µM
TGI (PC-3 prostate): > 100 µM
TGI (SK-MEL-28 melanoma): > 100 µM
TGI (MOLT-4 leukemia): > 100 µM
TGI (BT-549 breast): > 100 µM
TGI (SF-268 CNS): > 100 µM
TGI (MDA-N): > 100 µM
TGI (SNB-19 CNS): > 100 µM
TGI (UACC-62 melanoma): > 100 µM
TGI (KM12 colon): > 100 µM
TGI (NCI-H522 lung): > 100 µM
TGI (OVCAR-3 ovarian): > 100 µM
TGI (HOP-92 NSCLC): > 100 µM
TGI (T-47D breast): > 100 µM
TGI (HCT-116 colon): > 100 µM
TGI (MCF7 breast): > 100 µM
TGI (CAKI-1 renal): > 100 µM
TGI (NCI-H226 lung): > 100 µM
TGI (OVCAR-5 ovarian): > 100 µM
TGI (SF-539 CNS): > 100 µM
TGI (EKVX NSCLC): > 100 µM
TGI (MDA-MB-435): > 100 µM
TGI (HCC-2998 colon): > 100 µM
TGI (OVCAR-4 ovarian): > 100 µM
TGI (SW-620 colon): > 100 µM
TGI (IGROV1 ovarian): > 100 µM
TGI (K-562 leukemia): > 100 µM
TGI (SK-MEL-5 melanoma): > 100 µM
TGI (786-0 renal): > 100 µM
TGI (ACHN renal): > 100 µM
TGI (DU-145 prostate): > 100 µM
TGI (NCI-H460 lung): > 100 µM
TGI (CCRF-CEM leukemia): > 100 µM
TGI (A498 renal): > 100 µM
TGI (UO-31 renal): > 100 µM
TGI (UACC-257 melanoma): > 100 µM

O=C1OC(=O)c2c1cc1cc3c(cc1c2-c1ccc2c(c1)OCO2)OCO3
TGI (MDA-MB-231 breast): > 100 µM
TGI (SN12C renal): > 100 µM
TGI (SF-295 CNS): > 100 µM
TGI (U251 CNS): > 100 µM
TGI (TK-10 renal): > 100 µM
TGI (OVCAR-8 ovarian): > 100 µM
TGI (NCI-H23 lung): > 100 µM
TGI (COLO 205 colon): > 100 µM
TGI (HCT-15 colon): > 100 µM
TGI (A549 NSCLC): > 100 µM
TGI (M14 melanoma): > 100 µM
TGI (HT29 colon): > 100 µM
TGI (SNB-75 CNS): > 100 µM
TGI (MALME-3M melanoma): > 100 µM
TGI (RXF 393 renal): > 100 µM
TGI (HL-60(TB) leukemia): > 100 µM
TGI (PC-3 prostate): > 100 µM
TGI (SK-MEL-28 melanoma): > 100 µM
TGI (SK-MEL-2 melanoma): > 100 µM
TGI (MOLT-4 leukemia): > 100 µM
TGI (BT-549 breast): > 100 µM
TGI (NCI/ADR-RES ovarian): > 100 µM
TGI (SF-268 CNS): > 100 µM
TGI (MDA-N): > 100 µM
TGI (SNB-19 CNS): > 100 µM
TGI (UACC-62 melanoma): > 100 µM
TGI (KM12 colon): > 100 µM
TGI (NCI-H522 lung): > 100 µM
TGI (OVCAR-3 ovarian): > 100 µM
TGI (HOP-92 NSCLC): > 100 µM
TGI (T-47D breast): > 100 µM
TGI (HCT-116 colon): > 100 µM
TGI (MCF7 breast): > 100 µM
TGI (CAKI-1 renal): > 100 µM
TGI (NCI-H226 lung): > 100 µM
TGI (OVCAR-5 ovarian): > 100 µM
TGI (SF-539 CNS): > 100 µM
TGI (MDA-MB-435): > 100 µM
TGI (HCC-2998 colon): > 100 µM
TGI (OVCAR-4 ovarian): > 100 µM
TGI (RPMI-8226 leukemia): > 100 µM
TGI (SW-620 colon): > 100 µM
TGI (IGROV1 ovarian): > 100 µM
TGI (K-562 leukemia): > 100 µM
TGI (SK-MEL-5 melanoma): > 100 µM
TGI (786-0 renal): 48.1 µM
TGI (ACHN renal): > 100 µM
TGI (DU-145 prostate): > 100 µM
TGI (NCI-H460 lung): > 100 µM
TGI (CCRF-CEM leukemia): > 100 µM
TGI (A498 renal): > 100 µM
TGI (UO-31 renal): > 100 µM
TGI (UACC-257 melanoma): > 100 µM

Reference: PubChem BioAssay (NCI)
